Measurements: patent publication US12398400B2, “Herbicide-resistant acetyl-CoA carboxylase (ACC) mutant and use thereof” (priority 2020, dated 2025)

Experiments:
Type in all cases: in vivo
[1] = test system: C2186R edited Oryza sativa plants; test: Herbicide spray tolerance of C2186R edited plants; settings: for tolerance compared with wild-type control: 5 g.a.i./mu, 14 d later, FIG. 6
Method: (§1) Multiple Oryza sativa varieties such as Wanzhijing 006, Nanjing 9108, and Jiahe 218 were used as experimental materials. The base editor constructed above was transformed into the Oryza sativa plants by A. tumefaciens to obtain gene-edited plants. Emerging seedlings were screened with a sethoxydim-containing medium at a concentration of SET-2: 2 mg/L. Or, edited seedlings were planted in a cultivation room. The edited seedlings and the control plants were sprayed with sethoxydim at a concentration of 0.5 g/L (corresponding to a field application dosage of 10 g. a.i/mu), and a survival rate of the seedlings was counted 10 d later.
(§2) Through screening cultivation, herbicide-resistant plants were screened out on a sethoxydim-containing medium. […] In addition, herbicide-resistant plants were also screened out in the cultivation room.
(§3) The I1879V and C2186R edited Oryza sativa plants obtained in Example 1 were planted, and the resistance to other types of herbicides was tested, such as phenthodim, quizalofop-p, fenoxaprop-p-ethyl, clethodim, haloxyfop-p-methyl, fenoxaprop, and butyclofen.
(§4) Dibble Oryza sativa plants at the seedling stage in the field were selected and sprayed with phenthodim at 20 g.a.i./mu (4 times a recommended dosage), and then results were observed.
(§5) Quizalofop-p and fenoxaprop-p-ethyl were each applied at 5 g.a.i./mu to I1879V edited plants and C2186R edited plants, and results were observed 14 d later.

[2] = test system: I1879V edited Oryza sativa plants; test: Herbicide spray tolerance of I1879V edited plants; settings: for tolerance compared with wild-type control: 5 g.a.i./mu, FIG. 6; for phytotoxicity observed: field seedlings
Method: as §1
(§6) For I1879V edited Oryza sativa plants, the dosage of sethoxydim was further increased to a corresponding field application dosage of 15 g. a.i/mu. The dosage of sethoxydim was further increased to 30 g. a.i/mu.
as §3, §4, §5
The tolerance of the I1879V edited plants to clethodim, haloxyfop-p-methyl, fenoxaprop, and butyclofen was tested, where the clethodim, haloxyfop-p-methyl, and fenoxaprop were each applied at concentrations of 5 g.a.i./mu (1×) and 10 g.a.i./mu (2×); and the butyclofen was applied at concentrations of 10 g.a.i./mu (1×) and 20 g.a.i./mu (2×). After the herbicide was applied for 20 d, the growth of the edited plants was observed and the herbicide resistance of the edited plants was counted.

[3] = test system: wild-type Oryza sativa plants; test: Herbicide spray on wild-type control plants; settings: for phytotoxicity observed: field seedlings
Method: as §1, §6, §4

[4] = test system: I1879V edited Oryza sativa plants; test: Screening of emerging seedlings on sethoxydim-containing medium; settings: 2 mg/L, FIG. 2
Method: as §1, §2

[5] = 20 g.a.i./mu (4 times recommended dosage), 7 d after spraying
[6] = 20 g.a.i./mu, 20 d after application, FIG. 5
[7] = 15 g. a.i/mu, 14 d later, FIG. 4

C[C@@H](Oc1ccc(Oc2cnc3cc(Cl)ccc3n2)cc1)C(=O)O [Quizalofop-p, quizalofop-p]
tolerance compared with wild-type control [1]: failed to produce tolerance
tolerance compared with wild-type control ([2]; 14 d later): failed to produce tolerance

CCOC(=O)[C@@H](C)Oc1ccc(Oc2nc3ccc(Cl)cc3o2)cc1 [fenoxaprop-p-ethyl]
tolerance compared with wild-type control [1]: failed to produce tolerance
tolerance compared with wild-type control ([2]; 14 d later): failed to produce tolerance

phenthodim
phytotoxicity observed ([1]; 20 g.a.i./mu, field seedlings): obvious phytotoxicity
phytotoxicity observed [3, 5]: obvious chlorosis and spots
phytotoxicity observed [3, 6]: serious phytotoxicity
phytotoxicity observed [2, 5]: no visible phytotoxicity
phytotoxicity observed [2, 6]: no obvious phytotoxicity

CCC/C(=N\OCC)C1=C(O)CC(CC(C)SCC)CC1=O (stereo not drawn) [sethoxydim]
herbicide tolerance of edited seedlings after spraying ([1]; sprayed at 0.5 g/L (field application dosage 10 g. a.i/mu), 10 d, FIG. 3): able to tolerate the herbicide
state of control plants after herbicide [3, 7]: obviously yellow and dead
survival of wild-type plants after herbicide ([3]; 30 g. a.i/mu, 20 d): all wild-type plants died
growth of edited material after herbicide [2, 7]: grew normally
phytotoxicity ([2]; 30 g. a.i/mu, 20 d): about 30%
herbicide tolerance of edited seedlings on herbicide-containing medium [4]: able to tolerate the herbicide
